According to US20220062262A1, “GSNO REDUCTASE INHIBITOR AS AN ADJUNCT THERAPY WITH REMOTE ISCHEMIC CONDITIONING AND THROMBOLYTIC REPERFUSION THERAPIES IN STROKE” (KING ABDULAZIZ UNIVERSITY, priority 2020, published 2022):

Key:
GSNOR = molecular target: T1, GSNOR (Mus musculus, UniProt P28474); assay: Plasma GSNOR activity (GSNO-dependent NADH consumption) after PT-stroke in aged female mice; assay type: in vivo; conditions: 2.5 mg/kg after PT-stroke, P<0.01
T1 construct: Plasma was isolated from freshly drawn blood after cardiac puncture under deep isoflurane anesthesia; from tissue; host or cells: plasma of aged female C57/B6-background mice after PT-stroke
T1 sequence (P28474 whole entry): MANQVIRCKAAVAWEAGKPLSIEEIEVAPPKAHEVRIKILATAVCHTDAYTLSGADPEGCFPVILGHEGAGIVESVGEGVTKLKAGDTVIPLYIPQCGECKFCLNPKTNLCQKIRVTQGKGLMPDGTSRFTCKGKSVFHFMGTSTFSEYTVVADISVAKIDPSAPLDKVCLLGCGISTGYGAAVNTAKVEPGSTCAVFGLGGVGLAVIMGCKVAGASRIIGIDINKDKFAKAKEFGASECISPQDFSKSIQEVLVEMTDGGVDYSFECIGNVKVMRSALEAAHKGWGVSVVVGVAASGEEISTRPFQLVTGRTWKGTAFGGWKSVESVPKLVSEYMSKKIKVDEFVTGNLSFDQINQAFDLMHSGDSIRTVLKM
Method: Plasma was isolated from freshly drawn blood after cardiac puncture under deep isoflurane anesthesia, and mice were sacrificed to collect brain tissue. Plasma and brain tissue samples were snap-frozen until assay.
A method of GSNO dependent NADH consumption was used to determine GSNOR activity as reported. Briefly, brain tissue was homogenized in a buffer containing 50mM Tris-HCl (pH 8.0), 150 mM NaCl, 1-mM EDTA, 0.1% Triton X-100 and 1:100 protease inhibitor cocktail and centrifuged (10, 000 g×10 minutes at 4° C.) to obtain supernatant. […] The consumption of NADH was monitored with fluorescence spectrophotometry at an excitation wavelength of 340 nm and emission at 460 nm. GSNOR activity was calculated by subtracting the rate of NADH consumption incubated in the presence of GSNO minus the rate of NADH consumption without GSNO in samples.
A sex difference was found in the basal level of plasma GSNOR activity, showing higher GSNOR activity in female mice compared to age-matched males (P<0.05; N=6/gp) as shown in FIG. 3A. […] Statistical significance was determined at P<0.05 and were indicated with asterisks or different letters indicating statistically different Means.

[1] = system: pMCAL-stroke (permanent occlusion of distal MCA trunk); assay: Permanent MCA occlusion (pMCAo/pMCAL) stroke model in adult male and ovariectomized female mice; assay type: in vivo; conditions: 2.5 mg/kg IV 1 h after stroke, repeated daily for 2 days, males and OVX-females
Method: The procedure for pMCAo was performed in mice as reported by Hoda et al. (Stroke 2012, 43(10):2794-2799). Briefly, under anesthesia, the junction of left zygomatic arch and squamous bone was drilled to make a 2-3 mm burr hole to expose the main trunk of MCA. The left MCA distal to the lenticulostriate branches was electrocauterized carefully without bleeding. The wound was closed, and mice were put under post-op recovery as described above. Sham-operated group underwent similar surgical procedures but without electrocauterization. Cortical LDF (Perimed Inc, Sweden) was performed to confirm the induction of stroke in anesthetized mice. Briefly, mice were anesthetized as above and a shallow indent was made in the parietal skull using a low-speed drill to place the LDF probe holder (PH07-6, Perimed Inc) aligning the holder hole at the stereotaxic coordinates (AP: 2-mm and lateral 3-mm with respect to bregma). The needle of LDF-probe (PH407, Perimed Inc) was inserted into the probe holder and the signal was recorded to confirm a significant drop in CBF following stroke. Mice were anesthetized as above, body temperature was maintained at 37±0.5 ° C., the skull was shaved, and a midline skin incision was made to primarily expose the MCA region. Perfusion images were acquired using PeriCam high resolution LASCA-Imager (PSI-Z system, Perimed Inc.) with a 70-mW built-in laser diode for illumination and 1388×1038 pixels CCD camera installed 10 cm above the skull (speed 19 Hz, and exposure time 6 mSec, 1.3 x 1.3 cm). Acquired video and images were analyzed for the dynamic changes in CBF. Overall perfusion of the ipsilateral ischemic hemisphere was determined, normalized with the equal size of region of interest (ROI) from the uninjured contralateral hemisphere and the relative CBF was calculated. […] Therefore, larger white area indicates higher injury and infarction volume. […] Performance of each mouse on the narrow beam was quantified by measuring the time it took for the mouse to traverse the 100-cm distance on the narrow beam and the number of foot slips that occurred in each trial. […]

ischemia/reperfusion = conditions: 5 mg/kg at 2 hr post ischemia/reperfusion, daily for 3 days or 2 weeks; cited from earlier work

## Cc1cc(C(N)=O)ccc1-n1c(CCC(=O)O)ccc1-c1ccc(-n2ccnc2)cc1 [GRI therapy, N6022]
GSNOR
  post-stroke plasma GSNOR activity: significantly inhibited the post-stroke plasma GSNOR activity
[1]; 72 h post-pMCAo
  restoration of CBF (% CBF, LSCI) vs vehicle: improved restoration of CBF in both sexes significantly
[1]; 72 h post-stroke
  infarct progression (TTC infarct volume): significantly prevented the infarct progression sex-independently in both groups
  motor function, narrow beam walk test (time to traverse, foot slips): equally effective in improving motor function in both sexes
ischemia/reperfusion
  Neurological score, survival rate and motor/cognitive skills: improved
